{
  "source": "patent US20240271184A1",
  "about": "“LOW PH COMPOSITION AND METHOD FOR S[…] ACIDS IN BIOLOGICAL SAMPLES” (priority 2021, published 2024)",
  "molecules": {"B1": {"name": "recombinant human placental RNAse inhibitor (protein, UniProt P13489 2-461, looked up)", "Ribonuclease inhibitor": "SLDIQSLDIQCEELSDARWAELLPLLQQCQVVRLDDCGLTEARCKDISSALRVNPALAELNLRSNELGDVGVHCVLQGLQTPSCKIQKLSLQNCCLTGAGCGVLSSTLRTLPTLQELHLSDNLLGDAGLQLLCEGLLDPQCRLEKLQLEYCSLSAASCEPLASVLRAKPDFKELTVSNNDINEAGVRVLCQGLKDSPCQLEALKLESCGVTSDNCRDLCGIVASKASLRELALGSNKLGDVGMAELCPGLLHPSSRLRTLWIWECGITAKGCGDLCRVLRAKESLKELSLAGNELGDEGARLLCETLLEPGCQLESLWVKSCSFTAACCSHFSSVLAQNRFLLELQISNNRLEDAGVRELCQGLGQPGSVLRVLWLADCDVSDSSCSSLAATLLANHSLRELDLSNNCLGDAGILQLVESVRQPGCLLEQLVLYDIYWSEEMEDRLQALEKDKPSLRVIS"}},
  "key": {"[1]": {"tested_on": "nucleases in saliva samples", "assay_type": "biochemical, human", "conditions": "for degradation of RNA in saliva samples obtained from nuclease-rich donors: pH 5.2; for rRNA doublet integrity and RIN in saliva: pH 4.71; for RNA stability and RIN as pH decreased: pH 5; for rRNA doublet and RIN of spiked RNA in saliva: T2"}, "[2]": {"tested_on": "nucleases in stool samples", "assay_type": "biochemical, human", "conditions": "pH 4.7"}, "[3]": {"tested_on": "RNAse activity in saliva samples", "experiment": "Nuclease assay (RNAseAlert) in saliva mixed 1:1 with formulation", "assay_type": "biochemical, human", "conditions": "ATA 5 mM final; PAAc at pH 4.7; CDTA when ATA was present; saliva 1:1"}, "[4]": {"experiment": "Solubility of salts in the present composition", "conditions": "4% SDS/100 mM CDTA/10 mM ATA/10 mg/mL PAAc"}},
  "data": [
    {"molecule": "O[C@H](CS)[C@H](O)CS", "note": "(racemic) [dithiothreitol]", "values": [
      {"measurement": "degradation of RNA in saliva samples obtained from nuclease-rich donors", "setting": "[1]", "result": "Degradation of RNA"}
    ]},
    {"molecule": "O=C(O)c1cc(SSc2ccc([N+](=O)[O-])c(C(=O)O)c2)ccc1[N+](=O)[O-]", "note": "[5,5-dithio-bis-(2-nitrobenzoic acid)]", "values": [
      {"measurement": "degradation of RNA in saliva samples obtained from nuclease-rich donors", "setting": "[1]", "result": "Degradation of RNA"}
    ]},
    {"molecule": "O=C(O)c1cc2cccc([N+](=O)[O-])c2[nH]1", "note": "[7-nitroindole-2-carboxylic acid]", "values": [
      {"measurement": "degradation of RNA in saliva samples obtained from nuclease-rich donors", "setting": "[1]", "result": "Degradation of RNA"}
    ]},
    {"molecule": "O=C(O)CN(CC(=O)O)C1CCCCC1N(CC(=O)O)CC(=O)O", "note": "(centres unmarked) [CDTA, 1,2-cyclohexanediaminetetraacetic acid]", "values": [
      {"measurement": "RIN and rRNA doublet of spiked RNA in stool", "setting": "[2]", "result": "RIN values increased and rRNA doublet remained intact"},
      {"measurement": "effect on RNAse activity of addition to guanidinium salt-based compositions", "setting": "[3]", "result": "minimal effect on RNAse activity"}
    ]},
    {"molecule": "CCCCCCCCCCCCCCCC[N+](C)(C)C.[Br-]", "note": "[CTAB, Cetyltrimethylammonium bromide]", "values": [
      {"measurement": "rRNA doublet integrity and RIN in saliva", "setting": "[1]", "result": "doublet was degraded and the RIN was significantly reduced"}
    ]},
    {"molecule": "O=C(O[C@@H]1Cc2c(O)cc(O)cc2O[C@@H]1c1cc(O)c(O)c(O)c1)c1cc(O)c(O)c(O)c1", "note": "[EGCG, epigallocatechin gallate]", "values": [
      {"measurement": "degradation of RNA in saliva samples obtained from nuclease-rich donors", "setting": "[1]", "result": "did not prevent degradation of RNA"}
    ]},
    {"molecule": "N#CS.N=C(N)N", "note": "[GTC, guanidinium thiocyanate]", "values": [
      {"measurement": "relative effectiveness for stabilizing RNA at low pH", "setting": "[1]", "result": "more effective than GuHCl"},
      {"measurement": "RNA stability and RIN as pH decreased", "setting": "[1]", "result": "surprising improvement in RNA stability and corresponding increase in RIN"}
    ]},
    {"molecule": "Cl.N=C(N)N", "note": "[GuHCl, guanidinium hydrochloride]", "values": [
      {"measurement": "RNA stability and RIN as pH decreased", "setting": "[1]", "result": "surprising improvement in RNA stability and corresponding increase in RIN"}
    ]},
    {"molecule": "[Cl-].[K+]", "note": "[KCl]", "values": [
      {"measurement": "solubility in the present composition", "setting": "[4]", "result": "solubility issues"}
    ]},
    {"molecule": "O=S(=O)([O-])[O-].[Li+].[Li+]", "note": "[Li2SO4, lithium sulphate]", "values": [
      {"measurement": "rRNA doublet and RIN of spiked RNA in saliva", "setting": "[1]", "result": "rRNA doublet was intact and the RIN was high"}
    ]},
    {"molecule": "[Cl-].[Li+]", "note": "[LiCl, lithium chloride]", "values": [
      {"measurement": "rRNA doublet and RIN of spiked RNA in saliva", "setting": "[1]", "result": "rRNA doublet was intact and the RIN was high"}
    ]},
    {"molecule": "[Cl-].[Na+]", "note": "[NaCl, sodium chloride]", "values": [
      {"measurement": "rRNA doublet and RIN of spiked RNA in saliva", "setting": "[1]", "result": "rRNA doublet was intact and the RIN was high"}
    ]},
    {"molecule": "CCCCCCCCCCCCOS(=O)(=O)[O-].[Na+]", "note": "[SDS, sodium dodecyl sulfate]", "values": [
      {"measurement": "rRNA doublet integrity and RIN in saliva", "setting": "[1]", "result": "able to preserve the integrity of rRNA"}
    ]},
    {"molecule": "N[C@H]1C(O)O[C@H](COP(=O)(O)O)[C@@H](O)[C@@H]1O", "note": "(some centres unmarked) [glucosamine 6-phosphate]", "values": [
      {"measurement": "degradation of RNA in saliva samples obtained from nuclease-rich donors", "setting": "[1]", "result": "Degradation of RNA"}
    ]},
    {"molecule": "O=S(=O)(O)c1cc(O)c2c(O)c(/N=N/c3cccc4ccccc34)c(S(=O)(=O)O)cc2c1", "note": "[pontacyl violet 6R]", "values": [
      {"measurement": "degradation of RNA in saliva samples obtained from nuclease-rich donors", "setting": "[1]", "result": "Degradation of RNA"}
    ]},
    {"molecule": "Cc1ccc(S(=O)(=O)O)cc1.[Na]", "note": "[sodium p-toluenesulfonate]", "values": [
      {"measurement": "degradation of RNA in saliva samples obtained from nuclease-rich donors", "setting": "[1]", "result": "Degradation of RNA"}
    ]},
    {"molecule": "O=C(O)CCP(CCC(=O)O)CCC(=O)O", "note": "[tris(2-carboxyethyl)phosphine]", "values": [
      {"measurement": "degradation of RNA in saliva samples obtained from nuclease-rich donors", "setting": "[1]", "result": "Degradation of RNA"}
    ]},
    {"molecule": "OCCS", "note": "[β-2-mercaptoethanol]", "values": [
      {"measurement": "degradation of RNA in saliva samples obtained from nuclease-rich donors", "setting": "[1]", "result": "Degradation of RNA"}
    ]},
    {"molecule": "ribonucleoside vanadyl complexes", "values": [
      {"measurement": "degradation of RNA in saliva samples obtained from nuclease-rich donors", "setting": "[1]", "result": "Degradation of RNA"}
    ]},
    {"molecule": "sodium lauroyl sarcosinate [Sarkosyl]", "values": [
      {"measurement": "rRNA doublet integrity and RIN in saliva", "setting": "[1]", "result": "doublet was degraded and the RIN was significantly reduced"}
    ]},
    {"molecule": "B1", "values": [
      {"measurement": "degradation of RNA in saliva samples obtained from nuclease-rich donors", "setting": "[1]", "result": "Degradation of RNA"}
    ]}
  ]
}
